Consider three molecules from patent publication US10913780B2, “Conjugates, their compositions, their uses, and their methods of making” (THE ADMINISTRATORS OF THE TULANE EDUCATIONAL FUND, priority 2016, dated 2021).

The test relates to activated human T-cells (Jurkat). Description: Inhibition of IL-2 release from a culture of activated human T-cells (Jurkat). The format is cell-based. Conditions: for inhibition of IL-2 release: Jurkat cells stimulated with lectin and Phorbol, overnight, potency compared with tacrolimus (FK-506); for effect on IL-2 release in the presence of increasing amounts of lanreotide: large excess of the somatostatin type 2 agonist lanreotide. How it is done:
Cells were harvested, washed twice, and re-suspended in serum-free medium at a cell density of 4×10^6 cells/ml. Fifty μl of cell suspension was then added to each well of 96-well plates followed by 50 μl of tested compounds at different concentration (4×) for 1 hour at 37° C. The cells were stimulated to release IL-2 by adding 50 μl of lectin in PBS (10 μg/ml) and 50 μl of Phorbol in DMSO (100 ng/ml) to each well and continuing overnight incubation. The plates were centrifuged for 10 min at 1500 rpm and supernatants harvested for IL-2 assay using kits purchased from R&D Systems (Minneapolis, Minn.) and following the experimental directions provided.

Bridge positions count the residues as written; N and C are the ends. Square brackets hold non-standard residues; d marks the D form. * marks the point of attachment. 4‑mercaptophenylacetyl = O=C(Cc1ccc(S)cc1)*; Nle = CCCC[C@H](N)C(=O)O

As to “Example 10: Tacrolimus-32-thiol linked by a disulfide bond (4-mercaptophenylacetic acid) to the cyclized somatostatin analog peptide of Example 9 ({tacrolimus‑32‑thiol (disulfide)-4‑mercaptophenylacetyl}-[dS]S[dS]S[dS][Nle][dY][dS]CF[dW]KTCT-NH2; disulfide 9-14)”, the “inhibition of IL-2 release” value is “virtually equipotent” and the “effect on IL-2 release in the presence of increasing amounts of lanreotide” value is listed as “blocked the IL-2 release inhibiting capability”. The “effect on IL-2 release in the presence of increasing amounts of lanreotide” value (listed as tacrolimus-32-SH-somatostatin) is reported as “Blockade of biological activity”.
In the case of `C=CC[C@@H]1/C=C(\C)C[C@H](C)C[C@H](OC)[C@H]2O[C@@](O)(C(=O)C(=O)N3CCCC[C@H]3C(=O)O[C@H](/C(C)=C/[C@@H]3CCC(S)[C@H](OC)C3)[C@H](C)[C@@H](O)CC1=O)[C@H](C)C[C@@H]2OC` (stereo partly drawn) [tacrolimus-32-thiol, Tacrolimus-32-Thiol], the “inhibition of IL-2 release” value was “virtually equipotent with the parent compound” (listed as 32-thiol analog of tacrolimus) and “equivalent potencies” (listed as tacrolimus-32-SH).
With `C=CC[C@@H]1/C=C(\C)C[C@H](C)C[C@H](OC)[C@H]2O[C@@](O)(C(=O)C(=O)N3CCCC[C@H]3C(=O)O[C@H](/C(C)=C/[C@@H]3CC[C@@H](O)[C@H](OC)C3)[C@H](C)[C@@H](O)CC1=O)[C@H](C)C[C@@H]2OC` [Tacrolimus, reference compound], the “inhibition of IL-2 release” value is “potent inhibitor”.
